In test [1] the test system is Acinetobacter baumannii ATCC17961. In words: Antimicrobial susceptibility testing: 90% growth inhibitory concentration (IC90) determination. As to conditions: Acinetobacter baumannii, ATCC17961, 16 h, read-out: ATCC 17961 IC90. It counts as cell-based. In a few lines:
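Growth inhibition derived in log phase from OD600 kinetics (every 20 minutes, 16h, 35±2° C) of ATCC17961 in Iso-Sensitest medium, inoculum ~5×10^5 CFU/ml. Compounds tested as twofold series, 10 points (e.g. 50 to 0.097 μM final); IC90 and IC50 reported.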

Test [2] concerns Acinetobacter baumannii ATCC17978. In words: Minimal Inhibitory Concentration (MIC) assay. It counts as cell-based. As to conditions: read-out: MIC AB. ATCC17978. The protocol: Minimal Inhibitory Concentration Protocol (MIC) Assay:
Table 2 provides the in vitro potency of the compounds of present invention obtained against the strain Acinetobacter baumannii ATCC17978, which was assessed by an MIC (Minimal Inhibitory Concentration) assay as follows.
Test compounds were prepared from 10 mM DMSO stock solutions. The top dose was diluted from 10 mM to 2.5 mM by DMSO, followed by serial 2-fold 11 points dilutions in DMSO in a master plate (Greiner, Cat No: 651201). 2 μL compounds were transferred from the master plate into a new 96-well assay plate (Costar, 3599).
The growth medium […] Mueller Hinton Broth (CAMHIB) was prepared by adding 22 g powder (BD, 212322) in 1 L purified water, autoclaved, and supplemented with sterilized CaCl2 (20 mg per liter) and MgCl2 (10 mg per liter).
Vials of each of the test microorganisms were maintained frozen in the vapor phase of a liquid nitrogen freezer. Took out the bacterial strain ATCC 17978 from liquid nitrogen freezer, thawed it at room temperature, and diluted the bacterial in the CAMHB medium to achieve a final inoculum of 2×10^5 CFU/mL. 98 μL of the adjusted bacteria suspension was dispensed to the assay plate and pipetted 5 times.
Then the assay plates were incubated for 20 hours at 35±2° C. in ambient air with humidity. Following incubation, MIC […] value, the lowest concentration of drug that inhibits visible growth of the microorganism, was recorded by visual judgment of bacterial growth through magnification mirror of MIC reader, and the assay plates were photographed with Qcount system as image raw data. Meanwhile, the D600 of assay plates was recorded with SpectraMax Plus384 as GD raw data.

The mark [3] stands for this setting: 90% growth inhibitory concentration, Acinetobacter baumannii ATCC17961, Iso-Sensitest broth, OD 600 nm over 16 h.
Setting [4] is: Acinetobacter baumannii ATCC17978, CAMHB medium, 20 hours at 35±2° C., visual reading.
Setting [5] is: Acinetobacter baumannii, ATCC17978, 20 h.

Values after ≈ are worked out from the molar mass of the structure shown. Where a name gives a salt, the structure may show the parent alone. Read-outs that look alike come from different tables or passages of the source.

Turning to `COCCn1cc(-c2ccc(-c3cnc(C(=O)Nc4ccc(C(=O)N5CCN(C(=O)C6CC[N+](C)(C)CC6)CC5)c(Cl)c4)n3C)c(F)c2F)c(-c2ccccc2)n1` [Example F49, N-[3-chloro-4-[4-(1,1-dimethylpiperidin-1-ium-4-carbonyl)piperazine-1-carbonyl]phenyl]-5-[2,3-difluoro-4-[1-(2-methoxyethyl)-3-phenyl-pyrazol-4-yl]phenyl]-1-methyl-imidazole-2-carboxamide; formate], the IC90 in test [1] (setting [3]) came out at 1520 nM. Also, in test [2] (setting [4]), the MIC came out at 2.5 µM.
Take `COCCn1nc(C)c(-c2ccc(-c3cnc(C(=O)Nc4ccc(C(=O)N5CCN(C(=O)C6CC[N+](C)(C)CC6O)CC5)c(Cl)c4)n3C)c(F)c2F)c1C` (centres unmarked) [Example D4, N-[3-chloro-4-[4-(3-hydroxy-1,1-dimethyl-piperidin-1-ium-4-carbonyl)piperazine-1-carbonyl]phenyl]-5-[2,3-difluoro-4-[1-(2-methoxyethyl)-3,5-dimethyl-pyrazol-4-yl]phenyl]-1-methyl-imidazole-2-carboxamide; formate]: the IC90 in test [1] (setting [3]) turned out to be 178 nM. Besides, the MIC in test [2] (setting [4]) turned out to be 1.56 µM.
`COCCn1ncc(-c2ccc(-c3cnc(C(=O)Nc4ccc(C(=O)N5CCN(C(=O)C6CCCN6)CC5)c(Cl)c4)n3C)c(F)c2F)c1C` (centres unmarked) [Example D29, N-[3-chloro-4-[4-(pyrrolidine-2-carbonyl)piperazine-1-carbonyl]phenyl]-5-[2,3-difluoro-4-[1-(2-methoxyethyl)-5-methyl-pyrazol-4-yl]phenyl]-1-methyl-imidazole-2-carboxamide; 2,2,2-trifluoroacetic acid]: in test [1] (setting [3]), the IC90 was below 20 nM. Further, in test [2] (setting [4]), the MIC stood at 0.45 µM (≈ 0.313 µg/mL).
With `COCCn1ncc(-c2ccc(-c3c(Cl)nc(C(=O)Nc4ccc(C(=O)N5CCN(C(=O)C6CC[N+](C)(C)CC6)CC5)c(Cl)c4)n3C)c(F)c2F)c1C` [Example F53, 4-chloro-N-[3-chloro-4-[4-(1,1-dimethylpiperidin-1-ium-4-carbonyl)piperazine-1-carbonyl]phenyl]-5-[2,3-difluoro-4-[1-(2-methoxyethyl)-5-methyl-pyrazol-4-yl]phenyl]-1-methyl-imidazole-2-carboxamide; formate], the IC90 in test [1] (setting [3]) worked out at 110 nM. Besides, the MIC in test [2] (setting [4]) is 0.6 µM.
Regarding `COCCn1cc(-c2ccc(-c3cnc(C(=O)Nc4ccc(C(=O)N5CCN(C(=O)C[N+]6(C)CCC(O)(CO)CC6)CC5)c(Cl)c4)n3C)c(F)c2F)c(C)n1` (centres unmarked) [Example D18, N-[3-chloro-4-[4-[2-[4-hydroxy-4-(hydroxymethyl)-1-methyl-piperidin-1-ium-1-yl]acetyl]piperazine-1-carbonyl]phenyl]-5-[2,3-difluoro-4-[1-(2-methoxyethyl)-3-methyl-pyrazol-4-yl]phenyl]-1-methyl-imidazole-2-carboxamide; formate], in test [1] (setting [3]), the concentration for an effect of 90% (IC90) was 58 nM. For the same compound, in test [2] (setting [4]), the MIC was determined as 1.23 µM.
Regarding `COCCn1cc(-c2ccc(-c3cnc(C(=O)Nc4ccc(C(=O)N5CCN(C(=O)C6CC[N+](C)(C)CC6)CC5)c(Cl)c4)n3C)c(F)c2F)c(CF)n1` [Example F29, N-[3-chloro-4-[4-(1,1-dimethylpiperidin-1-ium-4-carbonyl)piperazine-1-carbonyl]phenyl]-5-[2,3-difluoro-4-[3-(fluoromethyl)-1-(2-methoxyethyl)pyrazol-4-yl]phenyl]-1-methyl-imidazole-2-carboxamide; chloride], the IC90 in test [1] (setting [3]) was 280 nM. The MIC in test [2] (setting [4]) amounted to 4.73 µM.
Turning to `COc1ccc(-c2[nH]ncc2-c2ccc(-c3cnc(C(=O)Nc4ccc(C(=O)N5CCN(C(=O)C6CC[N+](C)(C)CC6)CC5)c(Cl)c4)n3C)c(F)c2F)cc1` [Example I2, N-[3-chloro-4-[4-(1,1-dimethylpiperidin-1-ium-4-carbonyl)piperazine-1-carbonyl]phenyl]-5-[2,3-difluoro-4-[5-(4-methoxyphenyl)-1H-pyrazol-4-yl]phenyl]-1-methyl-imidazole-2-carboxamide; formate], the IC90 in test [1] (setting [3]) was 608 nM. Besides, the MIC in test [2] (setting [4]) stood at 2.41 µM.
In the same order, the values of `Cn1c(-c2ccc(-c3cn[nH]c3-c3ccccn3)c(F)c2F)cnc1C(=O)Nc1ccc(C(=O)N2CCN(C(=O)C3CC[N+](C)(C)CC3)CC2)c(Cl)c1` [Example I1, N-[3-chloro-4-[4-(1,1-dimethylpiperidin-1-ium-4-carbonyl)piperazine-1-carbonyl]phenyl]-5-[2,3-difluoro-4-[5-(2-pyridyl)-1H-pyrazol-4-yl]phenyl]-1-methyl-imidazole-2-carboxamide; formate] are 432 nM and 2.32 µM.
With `COc1cccc(-c2[nH]ncc2-c2ccc(-c3cnc(C(=O)Nc4ccc(C(=O)N5CCN(C(=O)C6CC[N+](C)(C)CC6)CC5)c(Cl)c4)n3C)c(F)c2F)c1` [Example I3, N-[3-chloro-4-[4-(1,1-dimethylpiperidin-1-ium-4-carbonyl)piperazine-1-carbonyl]phenyl]-5-[2,3-difluoro-4-[5-(3-methoxyphenyl)-1H-pyrazol-4-yl]phenyl]-1-methyl-imidazole-2-carboxamide; formate], in test [1] (setting [3]), the IC90 was 398 nM. For the same compound, the MIC in test [2] (setting [4]) stood at 1.81 µM.
For `CO[C@H]1CCCC[C@@H]1NC(=O)Cn1cc(-c2ccc(-c3cnc(C(=O)Nc4ccc(C(=O)N5CCN(C(=O)C6CC[N+](C)(C)CC6)CC5)c(Cl)c4)n3C)c(F)c2F)c(C)n1` (racemic) [Example G32, N-[3-chloro-4-[4-(1,1-dimethylpiperidin-1-ium-4-carbonyl)piperazine-1-carbonyl]phenyl]-5-[2,3-difluoro-4-[1-[2-[[(1S,2S)-2-methoxycyelohexyl]amino]-2-oxo-ethyl]-3-methyl-pyrazol-4-yl]phenyl]-1-methyl-imidazole-2-carboxamide; formate] the same measures were 185 nM and 0.66 µM.
In the case of `COCCn1cc(-c2ccc(-c3cnc(C(=O)Nc4ccc(C(=O)N5CCN(C(=O)C6CCNCC6O)CC5)c(C)c4)n3C)c(F)c2F)c(C)n1` (centres unmarked) [Example D22, 5-[2,3-difluoro-4-[1-(2-methoxyethyl)-3-methyl-pyrazol-4-yl]phenyl]-N-[4-[4-(3-hydroxypiperidine-4-carbonyl)piperazine-1-carbonyl]-3-methyl-phenyl]-1-methyl-imidazole-2-carboxamide; formic acid], the IC90 in test [1] came out at 199 nM. Also, the MIC in test [2] (setting [5]) was 1.1 µM (≈ 0.775 µg/mL).
For `COCCn1cc(-c2ccc(-c3cnc(C(=O)Nc4ccc(C(=O)N5CCN(C(=O)C6CC[N+](C)(C)CC6)CC5)c(Cl)c4)n3C)c(F)c2F)c(Cl)n1` [Example F30, N-[3-chloro-4-[4-(1,1-dimethylpiperidin-1-ium-4-carbonyl)piperazine-1-carbonyl]phenyl]-5-[4-[3-chloro-1-(2-methoxyethyl)pyrazol-4-yl]-2,3-difluoro-phenyl]-1-methyl-imidazole-2-carboxamide; formate], in test [1] (setting [3]), the IC90 was determined as 97 nM. The MIC in test [2] (setting [4]) was 1.19 µM.
For the compound `Cc1nn(CC(=O)NC2CCC[N+](C)(C)C2)cc1-c1ccc(-c2cnc(C(=O)Nc3ccc(C(=O)N4CCN(C(=O)C5CC[N+](C)(C)CC5)CC4)c(Cl)c3)n2C)c(F)c1F` (centres unmarked) [Example G24, N-[3-chloro-4-[4-(1,1-dimethylpiperidin-1-ium-4-carbonyl)piperazine-1-carbonyl]phenyl]-5-[4-[1-[2-[0,1-dimethylpiperidin-1-ium-3-yl)amino]-2-oxo-ethyl]-3-methyl-pyrazol-4-yl]-2,3-difluoro-phenyl]-1-methyl-imidazole-2-carboxamide; diformate], in test [1], the IC90 turned out to be 508 nM. Further, in test [2] (setting [5]), the minimum inhibitory concentration (MIC) was 3.85 µM.

A word on the IC90: it is the point of the concentration-response curve where the effect stands at 90%. One may read the MIC as the least concentration at which growth counts as inhibited.

The values above are taken from patent US12421211B2, “Heterocyclic compounds” (Hoffmann-La Roche Inc., priority 2021, dated 2025).
